Assay results reported in patent US5969115A, “Bisazo dyes and their preparation and use” (Ilford Imaging Switzerland GMBH, priority 1997, dated 1999).

Experiments:
Format in all cases: physicochemical
[1] = Light fastness of printed samples (density loss after xenon lamp irradiation); conditions: for light fastness: printed samples, in words; for Density loss in %: xenon lamp, total illumination 20 kJoule/cm^2
Experimental: (§1) The present invention, as far as it relates to inks, is further illustrated by the following examples using dyes according to our invention described in Tables 1 and 2 and dyes representing the state of the art described in Tables 3 and 4. 100 g of each ink were prepared by heating the necessary amount of dye (3-7 g), glycerol (5 g), tetraethylenglycol (1.1 g). and a biocide solution (Promexal X50, available from Zeneca, Manchester, England) (1.2 g) together with water at a temperature of 50° C. under stirring for one hour. The resulting solution was cooled down to 20° C., pH was adjusted to 7.5 and passed through a Millipore® filter of 0.5 μm pore diameter. The dye quantity was adjusted in a way that the density of the printed images was the same for all dyes.
(§2) 30 g of gelatin with a high isoelectric point (type St 70,810, available from Deutsche Gelatinefabriken, Eberbach, Germany) were dissolved in 360 ml of deionised water. 1 g of a surfactant (Olin 10G, available from Olin Corporation, Norwalk, USA) were added to this solution. Immediately before coating 6.6 g of a solution of 2-(4-dimethyl-carbamoyl-pyridino)-ethanesulfonate (3%) were added and pH was adjusted to 6.5. 100 g/m^2 of this solution was then coated onto a resin coated paper support using a bar coater. The recording medium prepared in this way was dried for 12 hours.
(§3) The inks were then jetted onto this recording medium with an HP560 ink jet printer from Hewlett-Packard. The properties of the printed samples were evaluated later on.
The printed samples were irradiated in an Atlas Ci35A Weather-O-Meter® with a r 6500 W Xenon lamp until a total illumination of 20 kJoule/cm^2 was reached. The density loss was measured with an X-Rite® densitometer. It is expressed as % loss of initial density.

[2] = Color co-ordinates (L*a*b*) of printed samples; conditions: for neutral black (color co-ordinates): in words
Experimental: as §1, §2, §3
L*a*b*-values were measured on printed samples using a Gretag SPM 100 spectrometer, available from Gretag AG, Regensdorf, Switzerland.
Black dyes show a neutral hue if the values of a* and b*out of the L*a*b* color co-ordinates are zero.

[3] = Dye solubility in deionised water; conditions: for Solubility: deionised water, stirred 1 hour at 50° C., cooled to 20° C., Table 5; for solubility compared with previously known dyes 24 and 26: in words
Experimental: The dye was dispersed in deionised water and this dispersion was stirred for 1 hour at 50° C. Then the mixture was cooled down to 20° C., centrifuged and filtered. Dye solubility was calculated a) from visible spectral data of the filtered solution or b) based on the dried filter residue.

[4] = Absorption maximum in water
Text: The absorption maxima and the results of the tests (B) to (D) are listed in Table 6 for the dyes of the invention and in Table 7 for the dyes that are state of the art.

SMILES | light fastness [1] | Density loss in % ([1]; Table 6) | L*a*b*-value: L* ([2]; Table 6) | L*a*b*-value: a* ([2]; Table 6) | L*a*b*-value: b* ([2]; Table 6) | neutral black (color co-ordinates) [2] | Solubility [3] | solubility compared with previously known dyes 24 and 26 [3] | HD max in water ([4]; Table 6) | L*a*b*-value: L* ([2]; state of the art dyes, Table 7) | L*a*b*-value: a* ([2]; state of the art dyes, Table 7) | L*a*b*-value: b* ([2]; state of the art dyes, Table 7) | HD max in water ([4]; state of the art dyes, Table 7) | Density loss in % ([1]; state of the art dyes, Table 7)
O=S(=O)(O)CCNc1ccc2cc(S(=O)(=O)O)c(N=Nc3ccc(N=Nc4ccc(CS(=O)(=O)O)cc4)c4ccc(S(=O)(=O)O)cc34)c(O)c2c1 [Compound 8] | excellent light fastness | 14% | 17.3 | 4.0 | -6.6 | neutral blacks | > 20 g per 100 ml | considerably higher solubility | 577 nm |  |  |  |  | 
O=S(=O)(O)CCNc1ccc2cc(S(=O)(=O)O)c(N=Nc3ccc(N=Nc4ccc(S(=O)(=O)O)cc4)c4ccc(S(=O)(=O)O)cc34)c(O)c2c1 [Compound 5] | excellent light fastness | 6% | 7.3 | 2.0 | -2.4 | neutral blacks | 16 g per 100 ml |  | 576 nm |  |  |  |  | 
Nc1ccc2cc(S(=O)(=O)O)c(N=Nc3ccc(N=Nc4cc(C(=O)O)cc(C(=O)O)c4)c4ccc(S(=O)(=O)O)cc34)c(O)c2c1 [Compound 24, reference compound] |  |  |  |  |  |  | 12 g per 100 ml |  |  | 27.0 | -0.7 | -8.8 | 571 nm | 
O=S(=O)(O)CCNc1ccc2cc(S(=O)(=O)O)c(N=Nc3ccc(N=Nc4ccc(S(=O)(=O)O)cc4)c4ccc(S(=O)(=O)O)cc34)c(O)c2c1 [Compound 3] |  | 5% | 4.3 | 2.5 | -2.5 |  | > 20 g per 100 ml | considerably higher solubility | 575 nm |  |  |  |  | 
O=C(O)CCNc1ccc2cc(S(=O)(=O)O)c(N=Nc3ccc(N=Nc4cccc(C(=O)O)c4)c4ccc(S(=O)(=O)O)cc34)c(O)c2c1 [Compound 26, reference compound] |  |  |  |  |  |  | 17 g per 100 ml |  |  | 14.7 | 14.4 | -14.6 | 568 nm | 8%
O=C(O)c1cc(N=Nc2ccc(N=Nc3c(S(=O)(=O)O)cc4ccc(NCCS(=O)(=O)O)cc4c3O)c3cc(S(=O)(=O)O)ccc23)cc(C(=O)O)c1 [Compound 16] |  | 1% | 3.8 | 3.4 | 0.5 |  | > 20 g per 100 ml | considerably higher solubility | 580 nm |  |  |  |  | 
